Experimental data as given in ChEMBL document CHEMBL5252615, “Synthesis, biological activity and mechanism of action of novel allosecurinine derivatives as potential antitumor agents” (Bioorg Med Chem, 2023).
Active and inactive are the calls of the source. No cut-off for these calls is given here.

Experiments:
KG-1 [1] = assay: Induction of apoptosis in human KG-1 cells assessed as decrease in expression level of Bcl-2 measured after 48 hrs by Western blotting analysis; format: functional, cell-based; conditions: dose 1-5 µM
U-937 [2] = assay: Induction of apoptosis in human U-937 cells assessed as accumulation of cells at G1 phase at 1 to 2.5 uM after 48 hrs by PI staining based flow cytometric analysis; format: functional, cell-based; conditions: dose 1-2.5 µM
K562 [3] = assay: Induction of apoptosis in human K562 cells assessed as decrease in expression level of caspase 3/9 measured at 1 to 5 uM after 48 hrs by Western blotting analysis; format: functional, cell-based; conditions: dose 1-5 µM
NB-4 [4] = assay: Induction of apoptosis in human NB4 cells assessed as late apoptotic cells at 2.5 uM after 48 hrs by Annexin-V-FITC/PI staining based flow cytometric analysis (reference value: 0.89%); format: functional
NB-4 [5] = assay: Induction of apoptosis in human NB4 cells assessed as viable cells at 2.5 uM after 48 hrs by Annexin-V-FITC/PI staining based flow cytometric analysis (reference value: 97.96%); format: functional; conditions: read-out: Activity
K562 [6] = assay: Antitumor activity against human K562 cells assessed as reduction in cell viability incubated for 72 hrs; format: functional, cell-based; conditions: K562, 72 h
THP-1 [7] = assay: Induction of reactive oxygen species production in human THP-1 cells at 1 to 5 uM measured after 48 hrs by DCF fluorescence analysis; format: functional, cell-based; conditions: dose 1-5 µM
KG-1 [8] = assay: Induction of apoptosis in human KG-1 cells assessed as viable cells at 2.5 uM after 48 hrs by Annexin-V-FITC/PI staining based flow cytometric analysis (reference value: 96.41%); format: functional
THP-1 [9] = assay: Antitumor activity against human THP-1 cells assessed as reduction in cell viability incubated for 72 hrs; format: functional, cell-based; conditions: THP-1, 72 h
NB-4 [10] = assay: Induction of apoptosis in human NB4 cells assessed as accumulation of cells at sub-G1 phase at 2.5 uM after 48 hrs by PI staining based flow cytometric analysis; format: functional, cell-based
THP-1 [11] = assay: Induction of apoptosis in human THP-1 cells assessed as decrease in expression level of Bcl-2 measured after 48 hrs by Western blotting analysis; format: functional, cell-based; conditions: dose 1-5 µM
KG-1 [12] = assay: Induction of apoptosis in human KG-1 cells assessed as decrease in expression level of XIAP measured at 1 to 5 uM after 48 hrs by Western blotting analysis; format: functional, cell-based; conditions: dose 1-5 µM
KG-1 [13] = assay: Induction of apoptosis in human KG-1 cells assessed as change in mitochondrial membrane potential after 48 hrs by JC-1 staining based flow cytometric analysis; format: functional, cell-based
THP-1 [14] = assay: Induction of apoptosis in human THP-1 cells assessed as viable cells at 2.5 uM after 48 hrs by Annexin-V-FITC/PI staining based flow cytometric analysis (reference value: 93.94%); format: functional; conditions: read-out: Activity
KG-1 [15] = assay: Induction of apoptosis in human KG-1 cells assessed as late apoptotic cells at 2.5 uM after 48 hrs by Annexin-V-FITC/PI staining based flow cytometric analysis (reference value: 0.16%); format: functional
KG-1 [16] = assay: Induction of apoptosis in human KG-1 cells assessed as decrease in expression level of caspase 3/9 measured at 1 to 5 uM after 48 hrs by Western blotting analysis; format: functional, cell-based; conditions: dose 1-5 µM
KG-1 [17] = assay: Induction of reactive oxygen species production in human KG-1 cells at 1 to 5 uM measured after 48 hrs by DCFH-DA staining based flow cytometric analysis; format: functional, cell-based; conditions: dose 1-5 µM
U-937 [18] = assay: Induction of apoptosis in human U-937 cells assessed as increase in expression level of p21 measured at 1 to 5 uM after 48 hrs by Western blotting analysis; format: functional, cell-based; conditions: dose 1-5 µM
NB-4 [19] = assay: Induction of apoptosis in human NB4 cells assessed as decrease in expression level of Bcl-2 measured after 48 hrs by Western blotting analysis; format: functional, cell-based; conditions: dose 1-5 µM
U-937 [20] = assay: Induction of apoptosis in human U-937 cells assessed as necrotic cells at 2.5 uM after 48 hrs by Annexin-V-FITC/PI staining based flow cytometric analysis (reference value: 1.41%); format: functional
THP-1 [21] = assay: Induction of apoptosis in human THP-1 cells assessed as change in mitochondrial membrane potential after 48 hrs by JC-1 staining based flow cytometric analysis; format: functional, cell-based
HL-60 [22] = assay: Induction of apoptosis in human HL-60 cells assessed as accumulation of cells at sub-G1 phase at 2.5 uM after 48 hrs by PI staining based flow cytometric analysis; format: functional, cell-based
HL-60 [23] = assay: Induction of apoptosis in human HL-60 cells assessed as early apoptotic cells at 2.5 uM after 48 hrs by Annexin-V-FITC/PI staining based flow cytometric analysis (reference value: 0.68%); format: functional
THP-1 [24] = assay: Induction of reactive oxygen species production in human THP-1 cells at 1 to 5 uM measured after 48 hrs by DCFH-DA staining based flow cytometric analysis; format: functional, cell-based; conditions: dose 1-5 µM
U-937 [25] = assay: Induction of differentiation of human U-937 cells assessed as increase in CD11b expression at 0.5 uM measured after 72 hrs by flow cytometric analysis; format: functional, cell-based
U-937 [26] = assay: Induction of apoptosis in human U-937 cells assessed as change in mitochondrial membrane potential after 48 hrs by JC-1 staining based flow cytometric analysis; format: functional, cell-based
NB-4 [27] = assay: Induction of apoptosis in human NB4 cells assessed as decrease in expression level of XIAP measured at 1 to 5 uM after 48 hrs by Western blotting analysis; format: functional, cell-based; conditions: dose 1-5 µM
HL-60 [28] = assay: Induction of differentiation of human HL-60 cells assessed as increase in CD11b expression at 0.5 uM measured after 72 hrs by flow cytometric analysis; format: functional, cell-based
KG-1 [29] = assay: Induction of apoptosis in human KG-1 cells assessed as decrease in expression level of YAP1 measured at 1 to 5 uM after 48 hrs by Western blotting analysis; format: functional, cell-based; conditions: dose 1-5 µM
U-937 [30] = assay: Induction of apoptosis in human U-937 cells assessed as viable cells at 2.5 uM after 48 hrs by Annexin-V-FITC/PI staining based flow cytometric analysis (reference value: 94.78%); format: functional; conditions: read-out: Activity
U-937 [31] = assay: Induction of reactive oxygen species production in human U-937 cells at 1 to 5 uM measured after 48 hrs by DCF fluorescence analysis; format: functional, cell-based; conditions: dose 1-5 µM
U-937 [32] = assay: Induction of reactive oxygen species production in human U-937 cells at 1 to 5 uM measured after 48 hrs by DCFH-DA staining based flow cytometric analysis; format: functional, cell-based; conditions: dose 1-5 µM
K562 [33] = assay: Induction of apoptosis in human K562 cells assessed as decrease in expression level of Bcl-2 measured after 48 hrs by Western blotting analysis; format: functional, cell-based; conditions: dose 1-5 µM
KG-1 [34] = assay: Antitumor activity against human KG-1 cells assessed as reduction in cell viability incubated for 72 hrs; format: functional, cell-based; conditions: KG-1, 72 h
KG-1 [35] = assay: Induction of differentiation of human KG-1 cells assessed as increase in CD11b expression at 0.5 uM measured after 72 hrs by flow cytometric analysis; format: functional, cell-based

IC50 (K562 [6]): 1780 nM
IC50 (THP-1 [9]): 2840 nM
SMILES: O=C1O[C@@]23C[C@@H](C=CC2=C1C(O)c1ccc([N+](=O)[O-])cc1)N1CCCC[C@H]13 (stereo not given in full)
Activity (KG-1 [1]): Dose-Dependent Effect
Activity (U-937 [2]): Active
Activity (K562 [3]): Active
Activity (NB-4 [4]): 50.58%
viability at 2.5 µM (NB-4 [5]): 22.9%
Activity (THP-1 [7]): Active
Activity (KG-1 [8]): 45.18%
Activity (NB-4 [10]): Active
Activity (THP-1 [11]): Dose-Dependent Effect
Activity (KG-1 [12]): Active
Activity (KG-1 [13]): Active
viability at 2.5 µM (THP-1 [14]): 69.7%
Activity (KG-1 [15]): 46.7%
Activity (KG-1 [16]): Active
Activity (KG-1 [17]): Active
Activity (U-937 [18]): Active
Activity (NB-4 [19]): Dose-Dependent Effect
Activity (U-937 [20]): 29.96%
Activity (THP-1 [21]): Active
Activity (HL-60 [22]): Active
Activity (HL-60 [23]): 18.2%
Activity (THP-1 [24]): Active
Activity (U-937 [25]): Active
Activity (U-937 [26]): Active
Activity (NB-4 [27]): Active
Activity (HL-60 [28]): Active
Activity (KG-1 [29]): Active
viability at 2.5 µM (U-937 [30]): 41.3%
Activity (U-937 [31]): Active
Activity (U-937 [32]): Active
Activity (K562 [33]): Dose-Dependent Effect
IC50 (KG-1 [34]): 1060 nM
Activity (KG-1 [35]): Active
